Common to all, as to assay type: in vivo
The test system of series [1] is barnyard grass (Echinochloa crus-galli). In words: Pre-emergence application, herbicidal effect on barnyard grass (Table 1). Particulars: 20 days after application, score 0-5. Also noted: key: 0: not damaged; 5: completely killed. The text has this: (§1) Seeds of barnyard grass (Echinochloa crus-galli) and large crabgrass (Digitaria sanguinalis) as representatives of grassy weeds and those of radish, redroot pigweed (Amaranthus retroflexus), common purslane (Portulaca oleracea) and common lambsquarter (Chenopodium album) as representatives of broad-leaved weeds were individually sowed in flower pots of about 10 cm. in diameter. After covering the seeds with soil, test compounds as shown in Table 1 were individually applied to the soil treatment. Thereafter the plants were grown in a green house and 20 days after application the herbicidal effects of the compounds were observed, the results of which are as shown in Table 1.
(§2) Herbicidal effects were evaluated by the numerals ranging from 0 (not damaged) to 5 (completely killed). All the test compounds were used in the form of wettable powder and diluted with water before application.

In series [2] the test system is large crabgrass (Digitaria sanguinalis). In words: Pre-emergence application, herbicidal effect on large crabgrass (Table 1). Particulars: 20 days after application, score 0-5. Also on record: key: 0: not damaged; 5: completely killed.
Source text: as §1, §2

The subject of series [3] is radish. The experiment in a line: Pre-emergence application, herbicidal effect on radish (Table 1). Conditions: 20 days after application, score 0-5. Also on record: key: 0: not damaged; 5: completely killed.
Source text: as §1, §2

Series [4] deals with redroot pigweed (Amaranthus retroflexus). In words: Pre-emergence application, herbicidal effect on redroot pigweed (Table 1). Particulars: 20 days after application, score 0-5. Also noted: key: 0: not damaged; 5: completely killed.
Source text: as §1, §2

Series [5] has as its system common purslane (Portulaca oleracea). The experiment in a line: Pre-emergence application, herbicidal effect on common purslane (Table 1). Also noted: key: 0: not damaged; 5: completely killed. Conditions: 20 days after application, score 0-5.
Source text: as §1, §2

Series [6] relates to common lambsquarter (Chenopodium album). The experiment in a line: Pre-emergence application, herbicidal effect on common lambsquarter (Table 1). Also on record: key: 0: not damaged; 5: completely killed. Particulars: 20 days after application, score 0-5.
Source text: as §1, §2

Series [7] relates to rice. In words: Water application, phytotoxicity on rice (Table 2). Also noted: key: 0: no effect; 1: very slightly affected; 2: slightly affected; 3: moderately affected; 4: considerably affected; 5: completely killed. Particulars: 25 days, score 0-5. The text has this:
(§3) Wagner pots of 14 cm. in diameter, which had been packed with 1.5 kg. of paddy field soil, were brought into the state of paddy fields. To the pots were transplanted rice seedlings at the 3-leave stage. Further, seeds of barnyard grass (Echinochloa crus-galli) were sowed in the pots and required amounts of test compounds were applied to the soil under water lodged condition. 25 days after application, the degrees of herbicidal activity and phytotoxity were investigated on above-mentioned plants which had been transplanted and sowed, and on broad-leaved weeds, e.g., monochoria (Monochoria viaginalis Presl.), false pimpernel (Linderna pyxidaria) and toothcup (Rotala indica Koehue), which had been spontaneously germinated. The test compounds were used in the form of wettable powder. The herbicidal effects and the phytotoxity were evaluated as follows by the numerals ranging from 0 to 5.

For series [8], the system named is barnyard grass (Echinochloa crus-galli). In words: Water application, herbicidal effect on barnyard grass (Table 2). Also noted: key: 0: not damaged; 5: completely killed. Particulars: 25 days, score 0-5.
Source text: as §3

The subject of series [9] is broad-leaved weeds, e.g., monochoria, false pimpernel and toothcup. The experiment in a line: Water application, herbicidal effect on broad-leaved weeds (Table 2). Also noted: key: 0: not damaged; 5: completely killed. Particulars: 25 days, score 0-5.
Source text: as §3

Consider `CCCCOP(=O)(SCC(=O)N1CCCCC1CC)SCC(C)C` (stereo not drawn) [Compound 97], for which the “Herbicidal effect, barnyard grass” value in [1] (10 g./a.) came out at 4; in series [1] (20 g./a.), 5; in [1] (40 g./a.) it was 5. The “Herbicidal effect, large crabgrass” value in series [2] (10 g./a.) was found to be 4; in series [2] (20 g./a.), 5; in [2] (40 g./a.) it was 5. Moreover, the “Herbicidal effect, radish” value in series [3] (10 g./a.), in series [3] (20 g./a.) and in series [3] (40 g./a.) was 0 each time. Also, the “Herbicidal effect, redroot pigweed” value was 3 in series [4] (10 g./a.), 4 in series [4] (20 g./a.) and 5 in series [4] (40 g./a.). Further, the figures for the “Herbicidal effect, common purslane” value in series [5] (10 g./a.), in series [5] (20 g./a.) and in series [5] (40 g./a.) were 4, 4 and 5, respectively. Further, the “Herbicidal effect, common lambsquarter” value in [6] (10 g./a.) amounted to 3; in series [6] (20 g./a.), 4; in [6] (40 g./a.), 5. For the same compound, the Phytotoxicity on rice in [7] (10 g/a), in series [7] (20 g/a) and in [7] (40 g/a) was 0 throughout. Besides, the “Herbicidal effects, barnyard grass” value in series [8] (10 g/a), in [8] (20 g/a) and in series [8] (40 g/a) was 5 each time. In addition, the “Herbicidal effects, broad-leaved weeds” value in series [9] (10 g/a), in series [9] (20 g/a) and in series [9] (40 g/a) was 5 throughout.

`CCOP(=O)(SCCC(C)C)SCC(=O)N1CCCC(C)C1` (stereo not drawn) [Compound 73]: the “Herbicidal effect, barnyard grass” value in [1] (10 g./a.), in [1] (20 g./a.) and in series [1] (40 g./a.) was 5 in each case. The “Herbicidal effect, large crabgrass” value in series [2] (10 g./a.), in series [2] (20 g./a.) and in [2] (40 g./a.) was 5 each time. The “Herbicidal effect, radish” value in [3] (10 g./a.), in [3] (20 g./a.) and in [3] (40 g./a.) was 0 in each case. In addition, the “Herbicidal effect, redroot pigweed” value in [4] (10 g./a.) amounted to 4; in [4] (20 g./a.), 4; in series [4] (40 g./a.), 5. For the same compound, the results for the “Herbicidal effect, common purslane” value in series [5] (10 g./a.), in [5] (20 g./a.) and in series [5] (40 g./a.) were 4, 4 and 5, respectively. The entries for the “Herbicidal effect, common lambsquarter” value in series [6] (10 g./a.), in series [6] (20 g./a.) and in series [6] (40 g./a.) were 4, 4 and 5, respectively. For the same compound, the Phytotoxicity on rice in series [7] (10 g/a), in series [7] (20 g/a) and in series [7] (40 g/a) was 0 throughout. For the same compound, the “Herbicidal effects, barnyard grass” value in series [8] (10 g/a), in [8] (20 g/a) and in series [8] (40 g/a) was 5 throughout. Also, the “Herbicidal effects, broad-leaved weeds” value in [9] (10 g/a), in [9] (20 g/a) and in [9] (40 g/a) was 5 throughout.

For the compound `C=C(Cl)CSP(=O)(OCC)SCC(=O)N1CCCCC1CC` (stereo not drawn) [Compound 82], the “Herbicidal effect, barnyard grass” value in [1] (10 g./a.), in series [1] (20 g./a.) and in [1] (40 g./a.) was 5 each time. For the same compound, the “Herbicidal effect, large crabgrass” value in series [2] (10 g./a.), in series [2] (20 g./a.) and in series [2] (40 g./a.) was 5 each time. Also, the “Herbicidal effect, radish” value in series [3] (10 g./a.) is 0; in series [3] (20 g./a.) it was 0; in [3] (40 g./a.), 1. Moreover, the “Herbicidal effect, redroot pigweed” value in series [4] (10 g./a.) was found to be 4; in series [4] (20 g./a.), 4; in series [4] (40 g./a.) it was 5. The “Herbicidal effect, common purslane” value in [5] (10 g./a.) was 3; in series [5] (20 g./a.) it was 4; in series [5] (40 g./a.), 5. Also, the “Herbicidal effect, common lambsquarter” value is on record as 4 in series [6] (10 g./a.), 4 in series [6] (20 g./a.) and 5 in [6] (40 g./a.). Moreover, the Phytotoxicity on rice is reported as 0 in [7] (10 g/a), 0 in series [7] (20 g/a) and 2 in series [7] (40 g/a). Besides, the “Herbicidal effects, barnyard grass” value in series [8] (10 g/a), in series [8] (20 g/a) and in [8] (40 g/a) was 5 throughout. The “Herbicidal effects, broad-leaved weeds” value in series [9] (10 g/a), in series [9] (20 g/a) and in [9] (40 g/a) was 5 throughout.

Turning to `CCCOP(=O)(SCC)SCC(=O)N1CCCCC1CC` (stereo not drawn) [Compound 84], the “Herbicidal effect, barnyard grass” value in series [1] (10 g./a.), in series [1] (20 g./a.) and in [1] (40 g./a.) was 5 each time. Besides, the “Herbicidal effect, large crabgrass” value in [2] (10 g./a.), in series [2] (20 g./a.) and in [2] (40 g./a.) was 5 in each case. The “Herbicidal effect, radish” value in [3] (10 g./a.) turned out to be 0; in series [3] (20 g./a.) it was 1; in [3] (40 g./a.) it was 2. In addition, the entries for the “Herbicidal effect, redroot pigweed” value in series [4] (10 g./a.), in series [4] (20 g./a.) and in series [4] (40 g./a.) were 4, 5 and 5, respectively. The “Herbicidal effect, common purslane” value in series [5] (10 g./a.), in series [5] (20 g./a.) and in [5] (40 g./a.) was 5 each time. Besides, the “Herbicidal effect, common lambsquarter” value in series [6] (10 g./a.) worked out at 4; in series [6] (20 g./a.), 5; in [6] (40 g./a.), 5. Also, the Phytotoxicity on rice is listed as 0 in [7] (10 g/a), 0 in [7] (20 g/a) and 2 in series [7] (40 g/a). The “Herbicidal effects, barnyard grass” value in series [8] (10 g/a), in series [8] (20 g/a) and in series [8] (40 g/a) was 5 throughout. Also, the “Herbicidal effects, broad-leaved weeds” value in [9] (10 g/a), in [9] (20 g/a) and in series [9] (40 g/a) was 5 throughout.

As to `CCCCOP(=O)(SCCC(C)C)SCC(=O)N1CCCCC1CC` (stereo not drawn) [Compound 99], the “Herbicidal effect, barnyard grass” value in series [1] (10 g./a.) was determined as 4; in [1] (20 g./a.), 5; in series [1] (40 g./a.), 5. Moreover, the “Herbicidal effect, large crabgrass” value in [2] (10 g./a.), in series [2] (20 g./a.) and in series [2] (40 g./a.) was 5 each time. In addition, the “Herbicidal effect, radish” value in series [3] (10 g./a.), in series [3] (20 g./a.) and in series [3] (40 g./a.) was 0 throughout. Besides, the “Herbicidal effect, redroot pigweed” value is 4 in [4] (10 g./a.), 5 in series [4] (20 g./a.) and 5 in [4] (40 g./a.). Also, the “Herbicidal effect, common purslane” value in series [5] (10 g./a.), in series [5] (20 g./a.) and in [5] (40 g./a.) was 5 in each case. The “Herbicidal effect, common lambsquarter” value in series [6] (10 g./a.), in [6] (20 g./a.) and in series [6] (40 g./a.) was 5 in each case. Moreover, the Phytotoxicity on rice in [7] (10 g/a), in series [7] (20 g/a) and in [7] (40 g/a) was 0 each time. Moreover, the “Herbicidal effects, barnyard grass” value in series [8] (10 g/a), in [8] (20 g/a) and in series [8] (40 g/a) was 5 in each case. Moreover, the “Herbicidal effects, broad-leaved weeds” value in series [9] (10 g/a), in [9] (20 g/a) and in series [9] (40 g/a) was 5 throughout.

For the compound `O=[N+]([O-])c1ccc(Oc2ccc(Cl)cc2Cl)cc1` [NIP, reference compound], the Phytotoxicity on rice is listed as 2 in series [7] (20 g/a) and 4 in [7] (40 g/a). Moreover, the “Herbicidal effects, barnyard grass” value in series [8] (20 g/a) and in series [8] (40 g/a) was 5 in each case. In addition, the “Herbicidal effects, broad-leaved weeds” value in series [9] (20 g/a) and in series [9] (40 g/a) was 5 each time.

For the origin of these results see US4015974A, “Amido phosphorothiolates” (priority 1972, dated 1977).
